Laboratory results reported in ChEMBL document CHEMBL5385846, “Discovery and development of palmatine analogues as anti-NASH agents by activating farnesoid X receptor (FXR)” (Eur J Med Chem, 2023).
The source made the active and inactive calls.

How the values were obtained:
[1] = biological target: Collagen alpha-1(I) chain (Homo sapiens) (UniProt P02452); experiment: Inhibition of COL1A1 (unknown origin) expressed in human LX2 cells at 20 micromol/L incubated for 48 hrs by Bright-Glo luciferase assay relative to control; assay type: cell-based; conditions: dose 20.0 µmol/L
Mus musculus [2] = experiment: Hepatoprotective activity in CDAHFD induced C57BL/6N mouse liver injury model assessed as inhibition of lipid peroxidation at 200 mg/kg,po qd administration for 4 weeks; assay type: functional, organism-based
[3] = Half life in CD-1 mouse liver microsomes at 1 micromol/L measured upto 60 mins in presence of NADPH by LC-MS/MS analysis; assay type: ADME, Microsome; conditions: 1 h, 1 µM, dose 1 µmol/L
LX-2 [4] = experiment: Antifibrotic activity in TGF-beta1 induced human LX2 cells assessed as downregulation of TIMP1 mRNA expression incubated for 24 hrs by qRT-PCR analysis; assay type: functional, cell-based
Mus musculus [5] = experiment: Anti-inflammatory activity in CDAHFD induced C57BL/6N mouse liver injury model assessed as reduction in inflammatory cell infiltration in liver at 200 mg/kg,po qd administration for 4 weeks by hematoxylin and eosin staining based assay; assay type: functional, organism-based
LX-2 [6] = experiment: Antifibrotic activity in TGF-beta1 induced human LX2 cells assessed as downregulation of alpha-SMA protein expression incubated for 24 hrs by western blotting analysis; assay type: functional, cell-based
LX-2 [7] = experiment: Antifibrotic activity in TGF-beta1 induced human LX2 cells assessed as downregulation of COL1A1 mRNA expression incubated for 24 hrs by qRT-PCR analysis; assay type: functional, cell-based
Rattus norvegicus [8] = experiment: Antifibrotic activity in bile duct ligation induced Sprague-Dawley rat liver fibrosis model assessed as downregulation of TIMP1 mRNA expression at 200 mg/kg,po qd administration for 14 days by qRT-PCR analysis; assay type: functional, organism-based; conditions: time 14.0 day
[9] = Acute toxicity in Kunming mouse assessed as lethal dose at po administration; assay type: organism-based; conditions: in vivo
Rattus norvegicus [10] = experiment: Antifibrotic activity in bile duct ligation induced Sprague-Dawley rat liver fibrosis model assessed as downregulation of NTCP protein expression at 200 mg/kg,po qd administration for 14 days by Western blotting analysis; assay type: functional, organism-based; conditions: time 14.0 day
[11] = Acute toxicity in Kunming mouse assessed as effect on […] level at 250 to 1000 mg/kg,po administration; assay type: organism-based; conditions: in vivo, dose 250-1000 mg/kg
LX-2 [12] = experiment: Antifibrotic activity in TGF-beta1 induced human LX2 cells assessed as downregulation of TIMP1 protein expression incubated for 24 hrs by western blotting analysis; assay type: functional, cell-based
[13] = Metabolic stability in CD-1 mouse liver microsomes assessed as compound remaining at 1 micromol/L measured upto 60 mins in presence of NADPH by LC-MS/MS analysis; assay type: ADME, Microsome; conditions: 1 h, 1 µM, dose 1 µmol/L
Mus musculus [14] = experiment: Anti-inflammatory activity in CDAHFD induced C57BL/6N mouse liver injury model assessed as downregulation of TNF-alpha mRNA expression in liver at 200 mg/kg,po qd administration for 4 weeks by qRT-PCR analysis; assay type: functional, organism-based
Rattus norvegicus [15] = experiment: Antifibrotic activity in bile duct ligation induced Sprague-Dawley rat liver fibrosis model assessed as downregulation of TGF-beta1 mRNA expression at 200 mg/kg,po qd administration for 14 days by qRT-PCR analysis; assay type: functional, organism-based; conditions: time 14.0 day
[16] = Metabolic stability in Sprague-Dawley rat liver microsomes assessed as intrinsic clearance at 1 micromol/L measured upto 60 mins in presence of NADPH by LC-MS/MS analysis; assay type: ADME, Microsome; conditions: 1 h, 1 µM, dose 1 µmol/L
Mus musculus [17] = experiment: Hepatoprotective activity in CDAHFD induced C57BL/6N mouse liver injury model assessed as reduction in free cholesterol level at 200 mg/kg,po qd administration for 4 weeks; assay type: functional, organism-based
LX-2 [18] = experiment: Antifibrotic activity in TGF-beta1 induced human LX2 cells assessed as downregulation of alpha-SMA mRNA expression incubated for 24 hrs by qRT-PCR analysis; assay type: functional, cell-based
[19] = Metabolic stability in human liver microsomes assessed as compound remaining at 1 micromol/L measured upto 60 mins in presence of NADPH by LC-MS/MS analysis; assay type: ADME, Microsome; conditions: dose 1 µmol/L, read-out: Stability
Mus musculus [20] = experiment: Hepatoprotective activity in CDAHFD induced C57BL/6N mouse liver injury model assessed as decrease in triglyceride level at 200 mg/kg,po qd administration for 4 weeks; assay type: functional, organism-based
Mus musculus [21] = experiment: Hepatoprotective activity in CDAHFD induced C57BL/6N mouse liver injury model assessed as increase in glucose level at 200 mg/kg,po qd administration for 4 weeks; assay type: functional, organism-based
[22] = Metabolic stability in Sprague-Dawley rat liver microsomes assessed as compound remaining at 1 micromol/L measured upto 60 mins in presence of NADPH by LC-MS/MS analysis; assay type: ADME, Microsome; conditions: dose 1 µmol/L, read-out: Stability
Mus musculus [23] = experiment: Anti-inflammatory activity in CDAHFD induced C57BL/6N mouse liver injury model assessed as downregulation of IL-1beta protein expression in liver at 200 mg/kg,po qd administration for 4 weeks by Western blotting analysis; assay type: functional, organism-based
[24] = Metabolic stability in human liver microsomes assessed as intrinsic clearance at 1 micromol/L measured upto 60 mins in presence of NADPH by LC-MS/MS analysis; assay type: ADME, Microsome; conditions: 1 h, 1 µM, dose 1 µmol/L
Mus musculus [25] = experiment: Anti-inflammatory activity in CDAHFD induced C57BL/6N mouse liver injury model assessed as downregulation of IL-1beta mRNA expression in liver at 200 mg/kg,po qd administration for 4 weeks by qRT-PCR analysis; assay type: functional, organism-based
Rattus norvegicus [26] = experiment: Antifibrotic activity in bile duct ligation induced Sprague-Dawley rat liver fibrosis model assessed as upregulation of FXR protein expression at 200 mg/kg,po qd administration for 14 days by Western blotting analysis; assay type: functional, organism-based; conditions: time 14.0 day
[27] = Half life in Sprague-Dawley rat liver microsomes at 1 micromol/L measured upto 60 mins in presence of NADPH by LC-MS/MS analysis; assay type: ADME, Microsome; conditions: dose 1 µmol/L
Mus musculus [28] = experiment: Hepatoprotective activity in CDAHFD induced C57BL/6N mouse liver injury model assessed as reduction in hepatic steatosis at 200 mg/kg,po qd administration for 4 weeks by hematoxylin and eosin staining based assay; assay type: functional, organism-based
LX-2 [29] = experiment: Antifibrotic activity in TGF-beta1 induced human LX2 cells assessed as downregulation of TGF-beta1 mRNA expression incubated for 24 hrs by qRT-PCR analysis; assay type: functional, cell-based
Rattus norvegicus [30] = experiment: Hepatoprotective activity in bile duct ligation induced Sprague-Dawley rat liver injury model assessed as decrease in total bilirubin level at 200 mg/kg,po qd administration for 14 days; assay type: functional, organism-based; conditions: time 14.0 day
Mus musculus [31] = experiment: Hepatoprotective activity in CDAHFD induced C57BL/6N mouse liver injury model assessed as decrease in AST level at 200 mg/kg,po qd administration for 4 weeks; assay type: functional, organism-based
THP-1 = experiment: Anti-inflammatory activity in PMA differentiated human THP-1 cells assessed as downregulation of IL-1beta protein expression at 5 micromol/L incubated for 4 hrs followed by LPS and Nigericin addition for 3.5 hrs by Western blotting analysis; assay type: functional, cell-based; conditions: dose 5.0 µmol/L, time 7.5 hrs
Mus musculus [32] = experiment: Anti-inflammatory activity in CDAHFD induced C57BL/6N mouse liver injury model assessed as downregulation of MCP1 mRNA expression in liver at 200 mg/kg,po qd administration for 4 weeks by qRT-PCR analysis; assay type: functional, organism-based

Sequence of Collagen alpha-1(I) chain (Homo sapiens) (P02452 whole entry): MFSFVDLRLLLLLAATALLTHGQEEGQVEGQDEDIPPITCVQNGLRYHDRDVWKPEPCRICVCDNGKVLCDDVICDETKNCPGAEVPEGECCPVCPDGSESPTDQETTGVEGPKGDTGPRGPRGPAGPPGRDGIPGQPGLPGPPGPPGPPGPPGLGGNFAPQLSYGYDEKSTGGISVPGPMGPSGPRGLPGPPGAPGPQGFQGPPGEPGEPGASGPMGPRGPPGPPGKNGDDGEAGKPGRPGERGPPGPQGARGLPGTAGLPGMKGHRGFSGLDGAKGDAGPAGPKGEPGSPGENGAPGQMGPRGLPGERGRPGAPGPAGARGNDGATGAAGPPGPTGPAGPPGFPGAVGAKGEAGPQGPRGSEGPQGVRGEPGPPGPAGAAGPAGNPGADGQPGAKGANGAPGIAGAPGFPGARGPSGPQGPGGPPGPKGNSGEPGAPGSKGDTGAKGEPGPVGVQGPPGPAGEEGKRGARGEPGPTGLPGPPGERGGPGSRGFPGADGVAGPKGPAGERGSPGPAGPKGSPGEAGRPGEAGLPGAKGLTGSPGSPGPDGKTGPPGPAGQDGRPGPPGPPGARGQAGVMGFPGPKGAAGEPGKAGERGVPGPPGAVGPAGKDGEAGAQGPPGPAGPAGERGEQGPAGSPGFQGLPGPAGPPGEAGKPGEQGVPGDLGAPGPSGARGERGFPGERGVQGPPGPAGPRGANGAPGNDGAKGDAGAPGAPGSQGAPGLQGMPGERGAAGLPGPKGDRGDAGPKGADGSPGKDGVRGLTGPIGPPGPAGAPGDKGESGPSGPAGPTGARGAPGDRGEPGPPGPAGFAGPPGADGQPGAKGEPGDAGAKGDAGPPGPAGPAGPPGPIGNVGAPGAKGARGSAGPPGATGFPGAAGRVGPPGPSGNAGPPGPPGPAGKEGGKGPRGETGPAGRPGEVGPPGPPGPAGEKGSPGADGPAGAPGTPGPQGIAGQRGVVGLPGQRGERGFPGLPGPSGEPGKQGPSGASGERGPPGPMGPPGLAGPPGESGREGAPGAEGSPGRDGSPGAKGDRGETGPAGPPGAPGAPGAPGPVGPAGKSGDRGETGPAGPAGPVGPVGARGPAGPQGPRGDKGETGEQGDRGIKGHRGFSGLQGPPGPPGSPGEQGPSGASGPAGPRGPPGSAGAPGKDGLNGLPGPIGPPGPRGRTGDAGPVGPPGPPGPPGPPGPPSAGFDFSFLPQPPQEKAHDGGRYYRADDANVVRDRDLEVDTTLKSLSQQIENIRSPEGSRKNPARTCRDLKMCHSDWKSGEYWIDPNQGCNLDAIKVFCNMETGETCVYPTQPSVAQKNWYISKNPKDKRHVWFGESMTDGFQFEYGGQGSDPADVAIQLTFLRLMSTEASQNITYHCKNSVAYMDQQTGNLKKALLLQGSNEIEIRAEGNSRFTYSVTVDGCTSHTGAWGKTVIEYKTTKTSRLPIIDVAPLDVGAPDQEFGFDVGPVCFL

COc1cc2c(cc1OC)-c1cc3ccc(OC)c(OCc4cccc(C)c4)c3c[n+]1CC2.[Br-]
7.4 min: t1/2 [3] | half-life at 1 µM [27]
inactive: Activity (Mus musculus [20])
active: Activity (Mus musculus [2]) | Activity (LX-2 [4]) Dose-Dependent Effect | Activity (Mus musculus [5]) | Activity (LX-2 [6]) Dose-Dependent Effect | Activity (LX-2 [7]) Dose-Dependent Effect | Activity (Rattus norvegicus [8]) | Activity (Rattus norvegicus [10]) | Activity (LX-2 [12]) Dose-Dependent Effect | Activity (Mus musculus [14]) | Activity (Rattus norvegicus [15]) | Activity (Mus musculus [17]) | Activity (LX-2 [18]) Dose-Dependent Effect | Activity (Mus musculus [21]) | Activity (Mus musculus [23]) | Activity (Mus musculus [25]) | Activity (Rattus norvegicus [26]) | Activity (Mus musculus [28]) | Activity (LX-2 [29]) Dose-Dependent Effect | Activity (Rattus norvegicus [30]) | Activity (Mus musculus [31]) | Activity (THP-1) | Activity (Mus musculus [32])
39%: Stability [13]
> 1000 mg/kg: LD50 [9]
Non-Toxic: Activity [11]
44.1%: remaining at 1 h, 1 µM [19]
72.4%: inhibition [1]
20.3 L/h/kg: CLint,scaled [16]
1.4 L/h/kg: CLint,scaled [24]
0.4%: remaining at 1 h, 1 µM [22]
